Values quoted from earlier work, collected in US20140235552A1 (priority 2013, published 2014).
No end group written: not given here.

Assays:
gastrin levels = settings: 90 mg/day for 6 years or greater; cited from earlier work
[1] = tested on: patients with type 2 diabetes; settings: 12 weeks, cited from earlier work
beta cell mass = settings: after infusion in rats; cited from earlier work
[2] = tested on: human pancreatic ductal tissue; settings: in vitro, without epidermal growth factor; cited from earlier work

## Cc1c(OCC(F)(F)F)ccnc1C[S+]([O-])c1nc2ccccc2[nH]1 (stereo not shown) [Lansoprazole, 1H-Benzimidazole,2-[[[3-methyl-4-(2,2,2-trifluoroethoxy)-2-pyridinyl]methyl]sulfinyl]-2-[[[3-Methyl-4-(2,2,2-trifluoroethoxy)-2-pyridyl]-methyl]sulfinyl]benzimidazole]
Gastrin levels
  gastrin levels relative to normal: ~7 fold
  safety profile: sustained safety profile

## COc1ccc2nc([S@@+]([O-])Cc3ncc(C)c(OC)c3C)[nH]c2c1 [esomeprazole]
[1]; 20 type 2 diabetes patients, 40 mg
  increase in area under the curve (AUC) of gastrin: 9 fold
[1]; type 2 diabetes, authors' conclusion
  insulin secretion, glycaemic control or cardiovascular disease biomarkers: did not improve
[1]; type 2 diabetes, inventor's reading of the published data
  change in insulin AUC: no decline

## gastrin: gastrointestinal hormone demonstrated to result in new beta cell formation (QGPWLEEEEEAYGWMDF; ends and bridges not checked; UniProt P01350 76-92, looked up)
Beta cell mass
  beta cell mass: doubling
[2]
  beta cell neogenesis from human pancreatic ductal tissue: induce beta cell neogenesis
